Target: T1, RIPK1 (Homo sapiens, UniProt Q13546)
T1 construct: purchased DiscoverX
T1 sequence (Q13546 1-671): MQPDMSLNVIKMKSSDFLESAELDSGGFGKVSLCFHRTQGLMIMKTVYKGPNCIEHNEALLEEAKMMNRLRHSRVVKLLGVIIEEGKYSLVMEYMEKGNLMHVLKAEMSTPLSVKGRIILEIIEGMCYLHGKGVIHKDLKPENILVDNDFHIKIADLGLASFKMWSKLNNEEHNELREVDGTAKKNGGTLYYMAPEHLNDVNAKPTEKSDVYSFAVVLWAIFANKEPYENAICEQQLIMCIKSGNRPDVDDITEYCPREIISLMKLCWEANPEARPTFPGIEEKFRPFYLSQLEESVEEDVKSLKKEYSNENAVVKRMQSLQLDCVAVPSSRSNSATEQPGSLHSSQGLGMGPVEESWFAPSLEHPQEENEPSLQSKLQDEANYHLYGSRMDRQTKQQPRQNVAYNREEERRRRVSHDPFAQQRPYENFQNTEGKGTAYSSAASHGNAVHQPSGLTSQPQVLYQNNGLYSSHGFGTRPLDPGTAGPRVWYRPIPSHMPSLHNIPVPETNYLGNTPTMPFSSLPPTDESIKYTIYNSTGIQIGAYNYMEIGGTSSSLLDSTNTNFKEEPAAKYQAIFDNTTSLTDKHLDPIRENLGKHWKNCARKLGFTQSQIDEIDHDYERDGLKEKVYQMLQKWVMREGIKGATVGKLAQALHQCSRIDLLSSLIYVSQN
Assay: RIPK1 inhibitory activity, DiscoverX scanMAX kinase panel (% control)
Type: binding
Conditions: drug concentration 1 μM in DMSO, <35% counted as active, read-out: control percentage (% control) RIPK1
Method: To evaluate the RIPK1 inhibitory activity of a compound according to the present invention, the following experiment was performed. Specifically, for Examples 3 and 30 selected from the compounds of Examples of the present invention, enzyme (kinase) selectivity was measured by DiscoverX, and the experiment was conducted using a panel for scanMAX™ kinase analysis. Here, the enzyme was treated with a drug having a concentration of 1 μM in DMSO, and a control percentage (% control) was determined in the same manner as Formula 1 below.
Here, the positive control refers to a compound showing a control percentage of 0%, and the negative control is DMSO showing a control percentage of 100%. In addition, in terms of the enzyme selectivity of the present invention, when the control percentage with respect to an enzyme is <35% (i.e., less than 35%), it was determined that the compound has activity against the corresponding enzyme.

SMILES	remaining binding at 1 µM
COc1ncc(-c2ccc3nc(NC(C)=O)cn3n2)cc1NC(=O)N1OCC[C@H]1c1ccccc1 [Example 3, (S)-N-(5-(2-acetamidoimidazo[1,2-b]pyridazin-6-yl)-2-methoxypyridin-3-yl)-3-phenylisoxazolidine-2-carboxamide]	1%
COc1ncc(-c2ccc3nc(N)nn3c2)cc1NC(=O)N1OCC[C@H]1c1ccccc1 [Example 30, (S)-N-(5-(2-amino-[1,2,4]triazolo[1,5-a]pyridin-6-yl)-2-methoxypyridin-3-yl)-3-phenylisoxazolidine-2-carboxamide]	0%

Tested on: HT-29 cells
Assay: Cell necrosis inhibitory activity under necroptosis-inducing conditions (TNF-α, Z-VAD-FMK, LCL161) in HT-29 cells, Cell Titer-Glo
Type: cell-based
Conditions: Homo sapiens, 100 ng/mL TNF-α + 25 μM Z-VAD-FMK + Smac mimetic LCL161, 24 hours, cell viability
Method in brief: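 HT-29 cells seeded 24 h, then necroptosis induced with 100 ng/mL TNF-α, 25 μM Z-VAD-FMK and 10 μM LCL161 for 10 min before compound (11 points, 3-fold, top 0.1 or 1 μM; 0.05% DMSO). After 24 h, viability by CellTiter-Glo luminescence relative to untreated controls gave EC50 (nM).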

SMILES	EC50
COc1ncc(-c2ccc3nc(NC(C)=O)cn3n2)cc1NC(=O)N1OCC[C@H]1c1ccccc1 [Example 3, (S)-N-(5-(2-acetamidoimidazo[1,2-b]pyridazin-6-yl)-2-methoxypyridin-3-yl)-3-phenylisoxazolidine-2-carboxamide]	0.6 nM
COc1ncc(-c2ccc3nc(N)nn3c2)cc1NC(=O)N1OCC[C@H]1c1ccccc1 [Example 30, (S)-N-(5-(2-amino-[1,2,4]triazolo[1,5-a]pyridin-6-yl)-2-methoxypyridin-3-yl)-3-phenylisoxazolidine-2-carboxamide]	3.8 nM
Cc1ccc(-c2cc3c(cn2)ncn3C)cc1NC(=O)N1OCC[C@H]1c1ccccc1 [Example 133, (S)-N-(2-methyl-5-(1-methyl-1H-imidazo[4,5-c]pyridin-6-yl)phenyl)-3-phenylisoxazolidine-2-carboxamide]	6.5 nM
Cc1ncc(-c2ccc3nc(N)nn3c2)cc1NC(=O)N1OCC[C@H]1c1ccc(F)c(Cl)c1 [Example 42, (S)-N-(5-(2-amino-[1,2,4]triazolo[1,5-a]pyridin-6-yl)-2-methylpyridin-3-yl)-3-(3-chloro-4-fluorophenyl)isoxazolidine-2-carboxamide]	0.6 nM
Cc1ccc(-c2ccn3ncnc3c2)cc1NC(=O)N1OCC[C@H]1c1ccccc1 [Example 102, (S)-N-(5-([1,2,4]triazolo[1,5-a]pyridin-7-yl)-2-methylphenyl)-3-phenylisoxazolidine-2-carboxamide]	0.9 nM
Cc1ccc(-c2ccn3nc(N)nc3c2)cc1NC(=O)N1OCC[C@H]1c1cccc(F)c1 [Example 62, (S)-N-(5-(2-amino-[1,2,4]triazolo[1,5-a]pyridin-7-yl)-2-methylphenyl)-3-(3-fluorophenyl)isoxazolidine-2-carboxamide]	0.2 nM
COc1ncc(-c2ccc3nnn(C(C)C)c3c2)cc1NC(=O)N1OCC[C@H]1c1ccccc1 [Example 12, (S)-N-(5-(1-isopropyl-1H-benzo[d][1,2,3]triazol-6-yl)-2-methoxypyridin-3-yl)-3-phenylisoxazolidine-2-carboxamide]	13.7 nM
Cc1ncc(-c2ccc3nc(N)nn3c2)cc1NC(=O)N1OCC[C@H]1c1ccc(F)c(F)c1 [Example 55, (S)-N-(5-(2-amino-[1,2,4]triazolo[1,5-a]pyridin-6-yl)-2-methylpyridin-3-yl)-3-(3,4-difluorophenyl)isoxazolidine-2-carboxamide]	0.6 nM
COc1ncc(-c2ccc3nc(NC(C)=O)sc3n2)cc1NC(=O)N1OCC[C@H]1c1ccccc1 [Example 14, (S)-N-(5-(2-acetamidothiazolo[5,4-b]pyridin-5-yl)-2-methoxypyridin-3-yl)-3-phenylisoxazolidine-2-carboxamide]	0.7 nM
COc1ncc(-c2ccc3nc(N)cn3n2)cc1NC(=O)N1OCC[C@H]1c1ccccc1 [Example 7, (S)-N-(5-(2-aminoimidazo[1,2-b]pyridazin-6-y1)-2-methoxypyridin-3-yl)-3-phenylisoxazolidine-2-carboxamide]	40 nM
CC(=O)Nc1cn2nc(-c3cccc(NC(=O)N4OCC[C@H]4c4ccccc4)c3)ccc2n1 [Example 1, (S)-N-(3-(2-acetamidoimidazo[1,2-b]pyridazin-6-yl)phenyl)-3-phenylisoxazolidine-2-carboxamide]	0.9 nM
Cc1ncc(-c2ccc3nc(N)nn3c2)cc1NC(=O)N1OCC[C@H]1c1cccc(Cl)c1 [Example 39, (S)-N-(5-(2-amino-[1,2,4]triazolo[1,5-a]pyridin-6-yl)-2-methylpyridin-3-yl)-3-(3-chlorophenyl)isoxazolidine-2-carboxamide]	0.9 nM
CNC(=O)c1n[nH]c2cc(-c3ccc(OC)c(NC(=O)N4OCC[C@H]4c4ccccc4)c3)ccc12 [Example 24, (S)-N-(2-methoxy-5-(3-(methylcarbamoyl)-1H-indazol-6-yl)phenyl)-3-phenylisoxazolidine-2-carboxamide]	0.4 nM
Cc1ccc(-c2ccc3nc(N)nn3c2)cc1NC(=O)N1OCC[C@H]1c1cc(F)cc(F)c1 [Example 59, (S)-N-(5-(2-amino-[1,2,4]triazolo[1,5-a]pyridin-6-yl)-2-methylphenyl)-3-(3,5-difluorophenyl)isoxazolidine-2-carboxamide]	0.7 nM
Cc1ccc(-c2ccc3nc(N)nn3c2)cc1NC(=O)N1OCC[C@H]1c1ccc(C#N)cc1 [Example 91, (S)-N-(5-(2-amino-[1,2,4]triazolo[1,5-a]pyridin-6-yl)-2-methylphenyl)-3-(4-cyanophenyl)isoxazolidine-2-carboxamide]	0.9 nM
Cc1ccc(-c2ccc3nccn3c2)cc1NC(=O)N1OCC[C@H]1c1ccccc1 [Example 113, (S)-N-(5-(imidazo[1,2-a]pyridin-6-yl)-2-methylphenyl)-3-phenylisoxazolidine-2-carboxamide]	2.4 nM
COc1ccc(-c2ccc3nc(NC(C)=O)cn3n2)cc1NC(=O)N1OCC[C@H]1c1ccccc1 [Example 8, (S)-N-(5-(2-acetamidoimidazo[1,2-b]pyridazin-6-yl)-2-methoxyphenyl)-3-phenylisoxazolidine-2-carboxamide]	0.4 nM
Cc1ccc(-c2ccn3nc(N)cc3c2)cc1NC(=O)N1OCC[C@H]1c1ccccc1 [Example 126, (S)-N-(5-(2-aminopyrazolo[1,5-a]pyridin-5-yl)-2-methylphenyl)-3-phenylisoxazolidine-2-carboxamide]	0.4 nM
Cc1ccc(-c2ccc3nc(N)nn3c2)cc1NC(=O)N1OCC[C@H]1c1ccccc1 [Example 32, (S)-N-(5-(2-amino-[1,2,4]triazolo[1,5-a]pyridin-6-yl)-2-methylphenyl)-3-phenylisoxazolidine-2-carboxamide]	0.6 nM
Cc1ncc(-c2ccc3nc(N)nn3c2)cc1NC(=O)N1OCC[C@H]1c1cc(F)cc(F)c1 [Example 38, (S)-N-(5-(2-amino-[1,2,4]triazolo[1,5-a]pyridin-6-yl)-2-methylpyridin-3-yl)-3-(3,5-difluorophenyl)isoxazolidine-2-carboxamide]	1.6 nM
Cc1ncc(-c2ccc3nc(N)nn3c2)cc1NC(=O)N1OCC[C@H]1c1cccc(F)c1 [Example 37, (S)-N-(5-(2-amino-[1,2,4]triazolo[1,5-a]pyridin-6-yl)-2-methylpyridin-3-yl)-3-(3-fluorophenyl)isoxazolidine-2-carboxamide]	1.1 nM
Cc1ncc(-c2ccc3nc(N)nn3c2)cc1NC(=O)N1OCC[C@H]1c1ccc(F)cc1 [Example 56, (S)-N-(5-(2-amino-[1,2,4]triazolo[1,5-a]pyridin-6-yl)-2-methylpyridin-3-yl)-3-(4-fluorophenyl)isoxazolidine-2-carboxamide]	0.7 nM
Cc1ccc(-c2ccc3ncnn3c2)cc1NC(=O)N1OCC[C@H]1c1ccccc1 [Example 101, (S)-N-(5-([1,2,4]triazolo[1,5-a]pyridin-6-yl)-2-methylphenyl)-3-phenylisoxazolidine-2-carboxamide]	6.2 nM

Source: patent publication US20250019373A1, “ARYL OR HETEROARYL DERIVATIVE, AND PHARMACEUTICAL COMPOSITION COMPRISING SAME AS ACTIVE INGREDIENT FOR PREVENTION OR TREATMENT OF KINASE-RELATED DISEASES” (VORONOI INC., priority 2021, published 2025)
